# Entries after “also recorded” stand apart in the source; their conditions may differ. Where two headings read alike, the source gives them in different places.
# Columns and labels:
# [1] = system: Npm1^cA/+Rosa^SB/+ AML cells; experiment: Colony formation of Npm1^cA/+Rosa^SB/+ AML cells; details: 10 μM; after primary and secondary transplantation; FIG. 12A, B
# MUTZ-11 = experiment: Proliferation of MLL-PTD cell line MUTZ-11; details: 10 μM, 10-day period; FIG. 3A
# HL-60 = experiment: Cell proliferation, HL-60; assay type: cell-based; details: Homo sapiens; non-MLL-translocated line HL-60; FIG. 2
# MV4-11 [2] = experiment: Cell proliferation, MV4-11; assay type: cell-based; details: Homo sapiens; MLL-translocated line MV4-11; FIG. 2
# OCI-AML3 [3] = experiment: Proliferation of OCI-AML3 (NPM1 mutant) cells; assay type: cell-based, human
# Procedure: (§1) Apoptosis was assessed by staining cells with Annexin V 10 days after treatment. The extent of apoptosis was compared to that found in MLL-AF9 transformed cells treated in a similar fashion.
# Cell numbers were assessed at multiple time points after treatment was initiated. […] Evidence of differentiation was assessed after DOT1L inhibition via characterization of cell surface marker expression—such as CD11b and CD15 expression, both of which are induced upon differentiation of myelomonocytic leukemia cells.
# MTT assays were performed on day 11.
# 697 = experiment: Cell proliferation, 697; assay type: cell-based; details: Homo sapiens; non-MLL-translocated line 697; FIG. 2
# THP-1 = experiment: Cell proliferation, THP-1; assay type: cell-based; details: Homo sapiens; MLL-translocated line THP-1; FIG. 2
# H3K79me2 [4] = experiment: H3K79 methylation in NUP98-NSD1 transformed cells; assay type: cell-based, mouse; details: 10 μM
# EOL-1 = experiment: Proliferation of MLL-PTD cell line EOL-1; assay type: cell-based, human; details: 10 μM, 10-day period
# MV4-11 [5] = details: Daigle, 2011; cited from earlier work
# [6] = system: MLL-translocated cell lines; details: Daigle; cited from earlier work
# Jurkat [7] = experiment: Cell proliferation, Jurkat; assay type: cell-based; details: Homo sapiens; non-MLL-translocated line Jurkat; FIG. 2
# Kasumi-1 = experiment: Cell proliferation, Kasumi-1 (AML1-ETO)
# H3K79me2 [8] = experiment: H3K79me2 Western blot in MLL-AF9 transformed cells; assay type: cell-based, mouse; details: 10 μM, 10 days, FIG. 8A
# KOPN-8 = experiment: Cell proliferation, KOPN-8; assay type: cell-based; details: Homo sapiens; MLL-translocated line KOPN-8; FIG. 2
# H3K79 methylation = details: MLL-translocated leukemia cell lines; cited from earlier work
# H3K79me2 [9] = details: 0.048, 0.195, 0.781, 3.12, and 12.5 μm; FIG. 1A; cited from earlier work
# HOXA9 and MEIS1 = details: cited from earlier work
# H3K79me2 [10] = details: 0.048, 0.195, 0.781, 3.12, and 12.5 μm; FIG. 1A; cited from earlier work; remark: listed apart in the source
# [11] = system: HOXA9, HOXA10, MEIS1, HOXB3, HOXB4 and HOXB5 mRNA; experiment: HOX gene qPCR in Npm1^cA/+Flt3^ITD/+ AML cells; assay type: cell-based, mouse; details: 10 μM, FIG. 14B
# Procedure: The effect of DOT1L inhibition on the levels of various HOX genes and HOX-associated genes was evaluated using qPCR.
# [12] = system: MLL-AF9 transformed cells; experiment: Annexin V apoptosis in MLL-AF9 transformed cells; assay type: cell-based, mouse; details: 10 μM, 10 days; FIG. 8B
# Procedure: The percentage of Annexin V positive cells is shown.
# as §1
# Jurkat [13] = details: Daigle, 2011; cited from earlier work
# other methyltransferases = details: in words; FIG. 1B; cited from earlier work
# OCI-AML3 [14] = experiment: Differentiation marker CD11b in OCI-AML3 cells; details: 10 μM, days 4, 7, and 10; FIG. 11B
# Molm-13 = details: Daigle, 2011; cited from earlier work
# [15] = system: Npm1^cA/+Rosa^SB/+ AML cells; experiment: Leukemia initiating potential in vivo, mice injected with pre-treated Npm1^cA/+Rosa^SB/+ cells; set-up: species or system mouse
# From the text: FIGS. 13A-13C show the effects of DOT1L inhibition on leukemia initiating potential in vivo. […] FIG. 13B indicates differentiation in EPZ00477 treated cells (and not in cells exposed to only DMSO). […] Numbers of white blood cells and platelets are expressed as number of cells per microliter (μL) of blood. Hemoglobin levels are expressed in grams per deciliter (g/dl).
# Furthermore, peripheral blood smears stained with Wright-Giemsa stain indicate differentiation in EPZ00477 treated cells (and not in cells exposed to only DMSO) (FIG. 13B).
# [16] = system: Npm1^cA/−Flt3^ITD/+ AML cells; experiment: Survival of C57/BL6 mice injected with pre-treated Npm1^cA/−Flt3^ITD/+ cells
# [17] = system: HOXA9/MEIS1 transformed cells; experiment: Sensitivity of HOXA9/MEIS1 transformed cells; assay type: cell-based, murine
# MLL xenograft = details: in vivo administration; cited from earlier work
# [18] = system: Npm1^cA/+Flt3^ITD/+ AML cells; experiment: Colony formation of Npm1^cA/+Flt3^ITD/+ AML cells; details: 10 μM, after primary and secondary transplantation, FIG. 12A, B
# [19] = day 19 complete blood counts, FIG. 13C
compound,measurement,setting,value
"CC(C)N(CCCNC(=O)Nc1ccc(C(C)(C)C)cc1)C[C@H]1O[C@@H](n2ccc3c(N)ncnc32)[C@H](O)[C@@H]1O [EPZ004777, 1-(3-((((2R,3S,4R,5R)-5-(4-Amino-7H-pyrrolo[2,3-d]pyrimidin-7-yl)-3,4-dihydroxytetrahydrofuran-2-yl)methyl)(isopropyl)amino)propyl)-3-(4-(tert-butyl)phenyl)urea]",colony formation potential,[1],significant reduction
same,proliferation (cell counts),MUTZ-11,significantly inhibited
same,IC50,HL-60,> 50000 nM
same,IC50,MV4-11 [2],170 nM
same,proliferation / cell number versus DMSO,"OCI-AML3 [3]; 10 μM, compared with MLL-translocated line (Molm-13), FIG. 7C, 10","as sensitive; also recorded: equally, if not more sensitive; also recorded: dramatically inhibited"
same,IC50,"OCI-AML3 [3]; Homo sapiens, OCI-AML-3, 264 h, MTT assays on day 11, concentrations up to 10 μM",150 nM
same,IC50,697,35000 nM
same,IC50,THP-1,3000 nM
same,HOX promoter associated H3K79 methylation,H3K79me2 [4]; 7 day treatment,significantly reduced
same,global H3K79me2 level (Western blotting),"H3K79me2 [4]; 10 days, NUP98-NSD1 cells, FIG. 8A",completely abrogated; also recorded: decrease
same,proliferation,EOL-1,significantly inhibited
same,growth of MV4-11 leukemia cells,MV4-11 [5],exquisitely sensitive
same,"antiproliferative, differentiating, and apoptotic activities toward leukemia cells harboring MLL fusions",[6],highly selective
same,IC50,Jurkat [7],> 50000 nM
same,proliferation (cell counts),"Kasumi-1; 10 μM, AML1-ETO (Kasumi) cells, FIG. 3B, 7D",not sensitive; also recorded: insensitive
same,IC50,"Kasumi-1; Homo sapiens, Kasumi 1, read-out: IC50 for cell proliferation",33000 nM
same,global H3K79me2 level (Western blotting),H3K79me2 [8],completely abrogated; also recorded: decrease
same,IC50,KOPN-8,620 nM
same,concentration range inhibiting H3K79 methylation,H3K79 methylation,mid-nM range
same,H3K79me2 histone methylation,H3K79me2 [9],inhibited
same,"MLL fusion driven gene expression, including HOXA9 and MEIS1",HOXA9 and MEIS1,transcriptional repression; also recorded: dose-dependent inhibition
same,H3K79me2 histone methylation,H3K79me2 [10],inhibited
same,"HOXA9, HOXA10, MEIS1, HOXB3, HOXB4 and HOXB5 mRNA levels",[11],decreased
same,"HOXA9, HOXA10, MEIS1, HOXB3, HOXB4 and HOXB5 mRNA levels",[11]; listed as EPZ00477,significant decrease
same,apoptosis (Annexin V staining),[12],induces apoptosis
same,growth of MLL-germline Jurkat cells,Jurkat [13],unaffected
same,specificity for DOT1L / H3K79me as compared to other methyl transferases,other methyltransferases,highly specific; also recorded: remarkable specificity
same,"differentiation, cell surface marker CD11b expression",OCI-AML3 [14],increased differentiation
same,growth of the MLL-AF9 cell line Molm-13,Molm-13,exquisitely sensitive
same,survival (Kaplan-Meier),"[15]; cells pre-treated 6 days with 10 μM, FIG. 13A",extended survival time; also recorded: prolonged survival
same,"peripheral blood smears, Wright-Giemsa stain","[15]; day 19, cells pre-treated 6 days with 10 μM, FIG. 13B",differentiation
same,levels of hemoglobin,[15]; [19],slight increase
same,number of white blood cells,[15]; [19],significant reduction
same,platelet counts,[15]; [19],slight increase
same,day on which animals start dying,"[16]; cells treated with 10 μM, FIG. 13 A",31 days
same,survival time,[16]; treatment of the AML cells with the DOT1L inhibitor,prolonged survival time
same,sensitivity to DOT1L inhibition,[17],insensitive
same,survival,MLL xenograft,prolonged survival; also recorded: extension of survival
same,colony formation potential,[18],significant reduction; also recorded: reduce the colony formation potential
same,colony formation potential,[18]; listed as EPZ00477,significant reduction
